Data set [1] in a line: Antiviral activity against Influenza A virus (A/California/07/09(H1N1))pdm09 infected in MDCK cells assessed as decrease in virus production preincubated for 1 hr with cells followed by viral infection measured after 24 hrs by hemagglutination assay. Format: functional, cell-based, Influenza A virus (A/California/07/2009(H1N1)).
A short description of data set [2]: Cytotoxicity against MDCK cells assessed as increase in cell death after 48 hrs by MTT assay. Format: toxicity, cell-based, Canis lupus familiaris. Conditions: dog. For orientation: Tetrazolium assays rely on reduction of a dye to a coloured formazan, in cell work by metabolically active cells.
Data set [3] can be described thus: Selectivity index, ratio of CC50 for MDCK cells to IC50 for Influenza A virus (A/California/07/09(H1N1)) pdm09. The class given is functional.
Data set [4] relates to Lassa virus. The experiment in a line: Antiviral activity against Lassa virus. The class given is functional. Conditions: Mammarenavirus lassaense.
In data set [5] the test system is Sabia virus. The experiment in a line: Antiviral activity against Sabia virus. The class given is functional.
Data set [6] concerns Junin virus. The experiment in a line: Antiviral activity against Junin virus. Format: functional. Conditions: Mammarenavirus juninense.
For data set [7], the system named is Machupo mammarenavirus. The experiment in a line: Antiviral activity against Machupo virus. The class given is functional. Conditions: Mammarenavirus machupoense.
Data set [8] has as its system Guanarito virus. The experiment in a line: Antiviral activity against Guanarito virus. Conditions: Mammarenavirus guanaritoense. The class given is functional.

SMILES strings stand for the structures. pIC50: −log10 of the molar value. Where only a bound is given, the exact number is not on record here.

Take `O=C(Nc1nc2ccccc2n1CCOc1ccccc1)c1ccco1`: the pIC50 in data set [1] was 4.37. The CC50 at 48 h in data set [2] amounted to 2160 µM. For the same molecule, the “Ratio CC50/IC50” value in data set [3] came to 50.
Regarding `O=C(Nc1nc2ccccc2n1CCOc1ccc(Cl)cc1)c1ccco1`, the pIC50 in data set [1] was 4.24. The CC50 at 48 h in data set [2] is 346 µM. For the same molecule, the “Ratio CC50/IC50” value in data set [3] amounted to 6.
For `S=C(Nc1ccccc1)Nc1nc2ccccc2n1CCOc1ccc(Br)cc1` the same measures were below 4.67, 20.3 µM and below 1.
Consider `S=C(Nc1ccccc1)Nc1nc2ccccc2n1CCOc1ccccc1`, for which, in data set [1], the pIC50 was 4.59. The CC50 at 48 h in data set [2] worked out at 25.8 µM. In addition, the “Ratio CC50/IC50” value in data set [3] came to 1.
For `Cl.N=c1n(Cc2ccc(F)cc2)c2ccccc2n1Cc1ccc(Cl)c(Cl)c1` the same measures were 5.35, 21.8 µM and 5.
Regarding `O=C(/N=c1\[nH]c2ccccc2n1CCOc1ccc(F)cc1)c1ccc(Cl)cc1`, the pIC50 in data set [1] is 3.95. Further, in data set [2], the CC50 at 48 h was above 732 µM. Also, the “Ratio CC50/IC50” value in data set [3] is reported as above 7.
For the molecule `Br.C=CCn1c(=N)n(CCOc2ccc(C(C)(C)C)cc2)c2ccccc21`, the pIC50 in data set [1] is 5.80. The CC50 at 48 h in data set [2] is 12.8 µM. For the same molecule, in data set [3], the “Ratio CC50/IC50” value is reported as 8.
The like results for `CC(C)(C)c1ccc(OCCn2c(=N)n(CC(N)=O)c3ccccc32)cc1.Cl` were, in that order, 4.56, 151 µM and 5.
The like results for `O=C(/N=c1\[nH]c2ccccc2n1CCOc1ccc(F)cc1)c1ccc([N+](=O)[O-])cc1` were, in that order, 3.26, above 2550 µM and above 5.
On to `Cl.N=c1n(CCO)c2ccccc2n1Cc1ccc(Cl)c(Cl)c1`, for which the pIC50 in data set [1] was 5.62. The CC50 at 48 h in data set [2] is 202 µM. In data set [3], the “Ratio CC50/IC50” value is listed as 83.
The like results for `O=C(/N=c1\[nH]c2ccccc2n1CCOc1cccc(Cl)c1)c1ccco1` were, in that order, 4.88, 820 µM and 63.
For `Cl.N=c1n(CC(N)=O)c2ccccc2n1Cc1ccc(Cl)c(Cl)c1` the same measures were 5.15, 196 µM and 28.
For `O=C(/N=c1\[nH]c2ccccc2n1CCOc1ccc(Cl)cc1)c1cccs1` the same measures were 3.53, 2240 µM and 8.
For `Cl.N=c1n(CO)c2ccccc2n1CCOc1ccc(Cl)cc1`, the pIC50 in data set [1] is 5.34. In data set [2], the cytotoxic concentration (CC50) at 48 h was 40.8 µM. Besides, the “Ratio CC50/IC50” value in data set [3] is 9.
The like results for `Cc1ccccc1OCCn1/c(=N/C(=O)c2cccs2)[nH]c2ccccc21` were, in that order, 4.48, 159 µM and 5.
For `O=C(/N=c1\[nH]c2ccccc2n1CCOc1ccc(Br)cc1)c1cccs1` the same measures were 3.50, above 2260 µM and above 7.
With `Cl.N=c1n(CCOc2ccc(F)cc2)c2ccccc2n1CC(N)=O`, in data set [1], the pIC50 was 4.26. Further, the half-maximal cytotoxic concentration (CC50) at 48 h in data set [2] worked out at 1260 µM. In data set [3], the “Ratio CC50/IC50” value is 23.
As to `COc1ccc(OCCn2/c(=N/C(=O)c3cccs3)[nH]c3ccccc32)cc1`, in data set [1], the pIC50 was 3.35. Besides, the CC50 at 48 h in data set [2] is above 2540 µM. The “Ratio CC50/IC50” value in data set [3] is recorded as above 6.
In the case of `COc1ccc(-n2cnc3cc(NCc4ccc(C)cc4)ccc32)cc1`, the pIC50 in data set [4] is 8.80; in data set [5] it was 7.92 to 9.70; in data set [6] it was 7.92 to 9.70; in data set [7], 7.92 to 9.70; in data set [8] it was 7.92 to 9.70.
On to `Br.Cc1ccc(OCCn2c(=N)n(Cc3ccc(Cl)c(Cl)c3)c3ccccc32)cc1`, for which the pIC50 in data set [1] is 6.22. Moreover, the CC50 at 48 h in data set [2] was 13.2 µM. Besides, the “Ratio CC50/IC50” value in data set [3] stood at 11.
Take `Br.C=CCn1c(=N)n(CCCOc2ccc(F)cc2)c2ccccc21`: the pIC50 in data set [1] is 5.00. Further, the CC50 at 48 h in data set [2] was found to be 80.1 µM. In data set [3], the “Ratio CC50/IC50” value is on record as 8.
The like results for `CC(C)(C)c1ccc(C(=O)/N=c2\[nH]c3ccccc3n2CCOc2ccc(Br)cc2)cc1` were, in that order, 4.43, 2030 µM and 54.
As to `Cc1ccc(OCCn2c(=N)n(CC(N)=O)c3ccccc32)cc1.Cl`, the pIC50 in data set [1] is 4.45. In addition, the CC50 at 48 h in data set [2] was 309 µM. Besides, in data set [3], the “Ratio CC50/IC50” value was found to be 9.

In general, pIC50 refers to the negative decadic logarithm of the IC50, by convention in mol/L. Broadly, the CC50 is the concentration that lowers cell viability or growth by half.

(Values after ChEMBL document CHEMBL3860083, “Tautomeric and non-tautomeric N-substituted 2-iminobenzimidazolines as new lead compounds for the design of anti-influenza drugs: An in vitro study” (Bioorg Med Chem, 2016).)
